Measurements taken from patent publication US5612378A, “Bis-arylsulfonylaminobenzamide derivatives and the use thereof as factor Xa inhibitors” (priority 1995, dated 1997).

Key:
smooth muscle cell = conditions: U.S. Pat. No. 5,385,885; cited from earlier work
[1] = given as adjuncts to thrombolysis; cited from earlier work
experimental restenosis = conditions: in vivo; cited from earlier work
human α-thrombin = human α-thrombin (Homo sapiens, UniProt P00734); assay: In vitro inhibition of purified human thrombin (hydrolysis of Bz-Phe-Val-Arg-pNa); type: biochemical; conditions: inhibitor at 6 μM, [thrombin]=36 nM, [Bz-Phe-Val-Arg-pNa]=66 μM, pH 7.5, 37° C.
Procedure: The ability of the compounds of the present invention to act as inhibitors of thrombin, factor Xa and plasmin catalytic activity was assessed by determining the concentration which inhibited enzyme activity by 50% using purified human enzymes. The concentration of added inhibitor that caused a 50% decrease in the initial rate of hydrolysis was defined as the IC50 value.
(§1) All assays are based on the ability of the test compound to inhibit the hydrolysis of a peptide p-nitroanilide substrate. In a typical experiment, appropriate substrate is prepared in DMSO, and diluted into an assay buffer consisting of 50mM HEPES and 130 mM NaCl at a pH of 7.5. The final concentration for each of the substrates is listed below. All substrate concentrations are at least 10 fold lower than Km to insure inhibition is competitive. Test compounds are prepared as 1 mg/ml solutions in DMSO, and three additional 10-fold dilutions in DMSO are prepared. Enzyme solutions are prepared at the concentrations listed below in assay buffer.
(§2) In a typical IC50 determination, into each well of a 96 well plate is pipetted 280 uL of substrate solution, 10 μL of inhibitor solution, and the plate is allowed to thermally equilibrate at 37° C. in a Molecular Devices Plate Reader for at least 10 minutes. Reactions are initiated by the addition of a 20 μL aliquot of enzyme, and the absorbance increase at 405 nm is recorded for 15 minutes. Data corresponding to less than 10% of the total substrate hydrolysis is used in the calculations. The ratio of the velocity (rate of the change in absorbance as a function of time) for a sample containing no inhibitor is divided by the velocity of a sample containing inhibitor, and is plotted as a function of inhibitor concentration. The inverse of the slope is the concentration of inhibitor which produces a 50% decrease in activity of the enzyme. This concentration is referred to as the IC50.
Thrombin activity was assessed as the ability to hydrolyse the substrate N-benzoyl-Phe-Val-Arg-p-nitroanilide (Bz-Phe-Val-Arg-pNa), and was obtained from Sigma Chemical Company (St. Louis, Mo.). Substrate solutions were prepared at a concentration of 60 μM (60 μM<<Km =1.2 mM) in assay buffer. Final DMSO concentration was 0.3%. […] Final reagent concentrations were: [thrombin]=36 nM, [Bz-Phe-Val-Arg-pNa]=66 μM, [inhibitor]=60 to 0.06 μM.

Factor Xa [2] = target: T1, Factor Xa (Homo sapiens, UniProt P00742); assay: In vitro inhibition of purified human factor Xa (hydrolysis of Bz-Ile-Glu-Gly-Arg-pNa); type: biochemical; conditions: purified human enzyme, [Factor Xa]=10 nM, [Bz-Ile-Glu-Gly-Arg-pNa]=26 μM, pH 7.5, 37° C.
T1 construct: purchased Enzyme Research Laboratories, Inc
T1 sequence (P00742 235-488 limits assumed): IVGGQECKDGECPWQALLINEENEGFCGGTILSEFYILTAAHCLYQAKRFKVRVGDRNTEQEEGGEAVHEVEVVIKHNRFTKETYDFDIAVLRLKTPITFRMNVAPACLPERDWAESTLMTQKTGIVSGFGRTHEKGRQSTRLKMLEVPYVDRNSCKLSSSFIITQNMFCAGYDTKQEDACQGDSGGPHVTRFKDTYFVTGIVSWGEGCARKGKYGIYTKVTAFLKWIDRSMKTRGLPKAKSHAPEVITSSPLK
T1 sequence (P00742 41-179 partner limits assumed): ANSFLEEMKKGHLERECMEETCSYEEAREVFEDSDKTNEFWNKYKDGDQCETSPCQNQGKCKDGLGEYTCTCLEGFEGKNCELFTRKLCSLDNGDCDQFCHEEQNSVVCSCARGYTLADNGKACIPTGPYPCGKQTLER
Procedure: The ability of the compounds of the present invention to act as inhibitors of thrombin, factor Xa and plasmin catalytic activity was assessed by determining the concentration which inhibited enzyme activity by 50% using purified human enzymes.
as §1, with “All substrate concentrations are at least 10 fold lower than Km to insure inhibition is competitive.” left out
as §2, with “Reactions” for “In a typical IC50 determination, into each well of a 96 well plate is pipetted 280 uL of substrate solution, 10 μL of inhibitor solution, and the plate is allowed to thermally equilibrate at 37° C. in a Molecular Devices Plate Reader for at least 10 minutes. Reactions”
Factor Xa activity was assessed as the ability to hydrolyse the substrate Bz-Ile-Glu-Gly-Arg-pNa, and was obtained from Sigma. […] Final DMSO concentration was 0.3%.

factor Xa [3] = conditions: cited from earlier work

## TAP: soft tick derived protein TAP (tick anticoagulant peptide) (YNRLCIKPRDWIDECDSNEGGERAYFRNGKGGCDSFWICPEDHTGADYYSSYRDCFNACI; UniProt P17726 1-60, looked up)
Smooth muscle cell
  smooth muscle cell proliferation inhibitory activity: smooth muscle cell proliferation inhibitory activity
[1]
  clot lysis and reocclusion: accelerated clot lysis and prevented reocclusion
Experimental restenosis
  reduction of experimental restenosis: reduce experimental restenosis

## O=C(NCCCCCNC(=O)c1cccc(NS(=O)(=O)c2ccc3ccccc3c2)c1)c1cccc(NS(=O)(=O)c2ccc3ccccc3c2)c1 [Example 4, 1,5-di[3-(2-naphthalenylsulfonylamino)benzamido]pentane]
Human α-thrombin
  inhibition at 6 µM: 0%
Factor Xa [2]
  IC50: 3000 nM

## O=C(NCc1cccc(CNC(=O)c2cccc(NS(=O)(=O)c3ccc4ccccc4c3)c2)c1)c1cccc(NS(=O)(=O)c2ccc3ccccc3c2)c1 [Example 7, 1,3-di-[3-(2-naphthalenylsulfonylamino)benzamidomethyl]benzene]
Human α-thrombin
  inhibition at 6 µM: 20%
Factor Xa [2]
  IC50: 2400 nM

## ecotin: The peptide ecotin is another selective, reversible, tight-binding inhibitor of factor Xa
Factor Xa [3]
  inhibition of factor Xa: selective, reversible, tight-binding inhibitor of factor Xa

## O=C(NCCCN1CCN(CCCNC(=O)c2cccc(NS(=O)(=O)c3ccc4ccccc4c3)c2)CC1)c1cccc(NS(=O)(=O)c2ccc3ccccc3c2)c1 [Example 6, 1,4-di-[3-(2-naphthalenylsulfonylamino)benzamidopropyl]piperazine]
Human α-thrombin
  inhibition at 6 µM: 0%
Factor Xa [2]
  IC50: 5200 nM

## O=C(NCCCCCCCCNC(=O)c1cccc(NS(=O)(=O)c2ccc3ccccc3c2)c1)c1cccc(NS(=O)(=O)c2ccc3ccccc3c2)c1 [Example 5, 1,8-di[3-(2-naphthalenylsulfonylamino)benzamido]octane]
Human α-thrombin
  inhibition at 6 µM: 20%
Factor Xa [2]
  IC50: 2100 nM

B1: antistasin: leech-derived, 119-amino acid protein antistasin (protein, UniProt P15358 18-136, looked up)
Antistasin: QGPFGPGCEEAGCPEGSACNIITDRCTCSGVRCRMHCPHGFQRSRYGCEFCKCRLEPMKATCDISECPEGMMCSRLTNKCDCKIDINCRKTCPNGLKRDKLGCEYCECRPKRKLIPRLS
Smooth muscle cell
  smooth muscle cell proliferation inhibitory activity: smooth muscle cell proliferation inhibitory activity
[1]
  clot lysis and reocclusion: accelerated clot lysis and prevented reocclusion
Experimental restenosis
  reduction of experimental restenosis: reduce experimental restenosis
